In ChEMBL document CHEMBL1201862, “PubChem BioAssay data set” (2004):
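All cell lines were grown in 96-well plates and treated with compound for 48 hours. GI50 = concentration required for 50% inhibition of growth.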 Calls of active or inactive are those of the source. Rule as the data show it: active = GI50 up to about 1.1 µM and inactive = higher.

Columns and labels:
Experiment in all cases: NCI anticancer screen, dose series, 48 h
OVCAR-4 = test system: OVCAR-4
UACC-62 = test system: UACC-62
SNB-19 = test system: SNB-19
SF-295 = test system: SF-295
SF-268 = test system: SF-268
SK-OV-3 = test system: SK-OV-3
A549 = test system: A549
U-251 = test system: U-251
UACC-257 = test system: UACC-257
SW-620 = test system: SW-620
LOX IMVI = test system: LOX IMVI
M14 = test system: M14
ACHN = test system: ACHN
EKVX = test system: EKVX
OVCAR-3 = test system: OVCAR-3
UO-31 = test system: UO-31
A498 = test system: A498
OVCAR-5 = test system: OVCAR-5
HCC 2998 = test system: HCC 2998
NCI-H226 = test system: NCI-H226

Measured: GI50

Nc1nc(SCCc2ccccc2)nc2nc3c(c(-c4ccccc4)c12)CCCC3
inactive: OVCAR-4 40.9 µM | UACC-62 > 100 µM | SNB-19 > 100 µM | SF-295 > 100 µM | SF-268 > 100 µM | SK-OV-3 99.1 µM | A549 > 100 µM | U-251 > 100 µM | UACC-257 > 100 µM | SW-620 > 100 µM | LOX IMVI > 100 µM | M14 > 100 µM | ACHN > 100 µM | EKVX > 100 µM | OVCAR-3 > 100 µM | UO-31 > 100 µM

COC(C[C@H]1CCCC[C@]1(O)/C(=C\CO[Si](C(C)C)(C(C)C)C(C)C)Sc1ccccc1)OC
inactive: OVCAR-4 39.2 µM | A498 > 100 µM | UACC-62 > 100 µM | SNB-19 26.7 µM | SF-295 32.4 µM | OVCAR-5 38.4 µM | SF-268 28.3 µM | SK-OV-3 > 100 µM | A549 28.6 µM | U-251 22.1 µM | UACC-257 42.4 µM | HCC 2998 16.5 µM | LOX IMVI 18 µM | M14 31.6 µM | ACHN > 100 µM | NCI-H226 23.2 µM | EKVX 37.4 µM | UO-31 42.2 µM

O=C(NC(Cc1ccc(I)cc1)C(=O)O)c1cccc(Br)c1 (stereo not given)
inactive: OVCAR-4 > 92.9 µM | A498 > 100 µM | UACC-62 50.6 µM | SNB-19 99.1 µM | SF-295 > 100 µM | OVCAR-5 > 100 µM | SF-268 > 100 µM | SK-OV-3 > 100 µM | A549 > 100 µM | U-251 78.3 µM | UACC-257 > 100 µM | HCC 2998 22.4 µM | SW-620 > 100 µM | LOX IMVI > 95.9 µM | NCI-H226 > 100 µM | EKVX > 61.7 µM | OVCAR-3 54.6 µM | UO-31 > 100 µM

CON(C)c1nc(N)c(C#N)c(C#N)c1C#N
inactive: OVCAR-4 > 10 µM | A498 > 10 µM | UACC-62 > 10 µM | SNB-19 > 10 µM | SF-295 > 10 µM | OVCAR-5 > 10 µM | SF-268 > 10 µM | SK-OV-3 > 10 µM | A549 > 10 µM | U-251 > 10 µM | HCC 2998 > 10 µM | SW-620 > 10 µM | LOX IMVI > 10 µM | M14 > 10 µM | ACHN > 10 µM | NCI-H226 > 10 µM | EKVX > 10 µM | OVCAR-3 2.28 µM | UO-31 > 10 µM

CSc1nc(NC2OCC(O)C(O)C2O)c(N)c(=O)n1C (stereo not given)
inactive: OVCAR-4 > 100 µM | A498 > 100 µM | UACC-62 > 100 µM | SNB-19 > 100 µM | SF-295 > 100 µM | OVCAR-5 > 100 µM | SF-268 > 100 µM | SK-OV-3 > 100 µM | A549 > 100 µM | U-251 > 100 µM | UACC-257 > 100 µM | HCC 2998 > 100 µM | SW-620 > 100 µM | LOX IMVI > 100 µM | NCI-H226 > 100 µM | EKVX > 100 µM | OVCAR-3 > 100 µM | UO-31 > 85.5 µM

CCC1NC(/N=N/c2ccc([N+](=O)[O-])cc2)(P(=O)(OC(C)C)OC(C)C)OC1=O (stereo not given)
inactive: OVCAR-4 > 100 µM | A498 > 100 µM | UACC-62 97.1 µM | SNB-19 > 100 µM | SF-295 > 100 µM | OVCAR-5 > 100 µM | SF-268 > 100 µM | SK-OV-3 > 100 µM | A549 > 100 µM | U-251 > 100 µM | UACC-257 > 100 µM | HCC 2998 > 100 µM | SW-620 > 100 µM | M14 > 100 µM | ACHN > 100 µM | EKVX > 100 µM | OVCAR-3 > 100 µM | UO-31 > 100 µM

C/C(=C\c1ccccc1)n1c(=O)cc(C)n1C
inactive: OVCAR-4 > 100 µM | UACC-62 > 100 µM | SNB-19 > 100 µM | SF-295 > 100 µM | OVCAR-5 > 100 µM | SF-268 > 100 µM | SK-OV-3 > 100 µM | A549 > 100 µM | U-251 > 100 µM | UACC-257 > 100 µM | HCC 2998 > 100 µM | SW-620 > 100 µM | LOX IMVI > 100 µM | M14 > 100 µM | ACHN > 100 µM | NCI-H226 > 100 µM | EKVX > 100 µM | OVCAR-3 > 100 µM | UO-31 > 100 µM

Cc1cc([N+](=O)[O-])ccc1/N=N/C(=O)NNc1ccc([N+](=O)[O-])cc1C
inactive: OVCAR-4 14.1 µM | A498 13.6 µM | UACC-62 13.5 µM | SNB-19 15.6 µM | OVCAR-5 17.1 µM | SF-268 20 µM | A549 15.8 µM | U-251 17.5 µM | UACC-257 20 µM | HCC 2998 16 µM | SW-620 16.7 µM | LOX IMVI 15.9 µM | M14 13.6 µM | ACHN 15.8 µM | NCI-H226 15.3 µM | OVCAR-3 18.8 µM | UO-31 11.8 µM

Cc1ccc(NC(=O)C2C(=O)N(c3ccc(C)c(C)c3)C(=O)/C2=N\NC(N)=S)cc1C (stereo not given)
inactive: UACC-62 50 µM | SNB-19 29.6 µM | SF-295 > 100 µM | SF-268 61.4 µM | SK-OV-3 45 µM | A549 > 100 µM | U-251 58.3 µM | UACC-257 > 100 µM | SW-620 > 100 µM | LOX IMVI > 100 µM | M14 > 100 µM | ACHN > 100 µM | NCI-H226 > 100 µM | EKVX > 100 µM | OVCAR-3 > 100 µM | UO-31 56.8 µM

O=C1C[C@H](c2ccccc2)C2(C(=O)c3ccccc3C2=O)[C@H](c2ccccc2)C1
inactive: OVCAR-4 > 100 µM | A498 > 100 µM | UACC-62 79.1 µM | SNB-19 > 100 µM | SF-295 > 100 µM | OVCAR-5 > 100 µM | SK-OV-3 19.5 µM | U-251 > 100 µM | HCC 2998 > 100 µM | M14 > 100 µM | NCI-H226 > 100 µM | OVCAR-3 > 100 µM | UO-31 > 100 µM

Oc1cc(-c2ccc(Cl)cc2)nc2ncccc12
inactive: OVCAR-4 56.6 µM | A498 68.1 µM | UACC-62 28.9 µM | SNB-19 64.1 µM | OVCAR-5 > 100 µM | SF-268 53.2 µM | SK-OV-3 46 µM | A549 54.2 µM | U-251 36.6 µM | UACC-257 53.5 µM | HCC 2998 69 µM | SW-620 31.1 µM | LOX IMVI 49 µM | M14 40.5 µM | ACHN 79.4 µM | NCI-H226 44.6 µM | EKVX 52.2 µM | UO-31 33 µM
